US10167258B2, “Inhibitors of mitochondrial pyruvate dehydrogenase kinase isoforms 1-4 and uses thereof” (The Board of Regents of the University of Texas System, priority 2013, dated 2019)
pIC50: −log10 of the molar value. Read-outs that look alike come from different tables or passages of the source.

Key:
[1] = Half-life in vitro in hepatic S9 fractions; assay type: in vitro ADME; conditions: data not shown
PDP1 = target: T1, PDP1 (Homo sapiens, UniProt Q9P0J1); test: PDP1 activity in vitro; assay type: biochemical; conditions: at up to 1 mM
T1 sequence (Q9P0J1 72-537): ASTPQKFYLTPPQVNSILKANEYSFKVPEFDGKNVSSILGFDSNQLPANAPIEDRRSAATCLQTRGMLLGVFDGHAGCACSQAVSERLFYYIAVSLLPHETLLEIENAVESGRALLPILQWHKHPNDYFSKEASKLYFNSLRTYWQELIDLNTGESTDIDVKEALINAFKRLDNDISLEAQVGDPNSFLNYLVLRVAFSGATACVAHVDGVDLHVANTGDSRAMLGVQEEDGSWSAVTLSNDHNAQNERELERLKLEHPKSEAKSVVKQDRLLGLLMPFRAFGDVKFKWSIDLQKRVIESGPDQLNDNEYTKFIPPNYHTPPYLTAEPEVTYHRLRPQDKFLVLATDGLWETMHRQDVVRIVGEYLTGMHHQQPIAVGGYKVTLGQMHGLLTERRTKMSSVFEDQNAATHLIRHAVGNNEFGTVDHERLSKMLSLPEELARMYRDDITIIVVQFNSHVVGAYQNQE

DIO mice = test: Blood biochemistry of DIO mice (lactate, cholesterol, triglycerides); assay type: in vivo; conditions: 70 mg/kg/day
Experimental: Six- to eight-week old C57BL/6J male mice were obtained from the local campus breeding colony at UT Southwestern Medical Center (Dallas, Tex.) and randomized into two groups: vehicle- and PS10-treated. Prior to the treatment, mice were fed with a 60% high-fat diet, which contained 32% saturated and 68% unsaturated fat (catalog number: D12492, Research Diet Inc. New Brunswick, N.J.), for eight to ten weeks to produce DIO animals. PS-10 was dissolved in 100% DMSO and then diluted to make a 10% DMSO aqueous solution containing 17.5% (w/v) (2-hydroxypropyl)-β-cyclodextrin for delivery. Animals were dosed at mid-day by intraperitoneal (IP) injections at 70 mg/kg using 1-ml syringe and 30-gauge needle. The length of the treatment is indicted in each experiment. At 10 h after the last injection, animals were euthanized using carbon dioxide asphyxiation followed by cervical dislocation and dissection. Blood was harvested by cardiac puncture and stored on ice. Acidified citrate dextrose (ACD) was used as an anticoagulant. Immediately after blood collection, heart, liver, kidneys and both hind-leg quadriceps muscles were removed and snap frozen in liquid nitrogen. Average ischemia time before organ harvest was about 2 to 3 min. Blood was centrifuged in an Eppendorf 5415R refrigerated microcentrifuge at 9,300×g for 5 min to isolate plasma, which was subsequently stored at −80° C.
Glucose levels were determined with Sigma Diagnostics Glucose (Sigma Aldrich, St. Louis, Mo.). The levels of lactate, cholesterol, and triglyceride were measured by Vitros 250 blood chemistry analyzer (Johnson & Johnson Inc.) in the Metabolic Phenotyping Core in UT Southwestern Medical Center.

ChREBP = test: Hepatic nuclear ChREBP protein levels in PDK inhibitor-treated DIO mice; assay type: in vivo; conditions: 40 mg/kg/day by mini-pumps for 5 days
Description: The antibody (from Santa Cruz) against the 95-kilodalton ChREBP is highly specific; no signal was detected in hepatic nuclear fractions from ChREBP KO mice. The reduced nuclear ChREBP protein levels correlate with curtailed liver-type pyruvate kinase (LPK) (FIG. 11B), the marker glycolytic enzyme tightly regulated by ChREBP^5. The increased PDC flux is indicated by diminished phosphorylation of the decarboxylase/dehydrogenase (E1)-α subunit of this enzyme complex (FIG. 11B); while the expression of this subunit is not affected (not shown). The glucose-sensitive transcription factor ChREBP discovered and cloned by the Uyeda group in 2001 (Yamashita et al., 2001) has emerged as a central regulator of lipogenesis in liver (Uyeda and Repa, 2006; Filhoulaud et al., 2013; Denechaud et al., 2008) and β-cells (Cha-Molstad et al., 2009; Kibbe et al., 2013) at the transcriptional level (Uyeda and Repa, 2006; Filhoulaud et al., 2013; Denechaud et al., 2008). […] Therefore, the inventors propose that increased glucose oxidation through PDC flux lowers hepatic glucose concentrations and attenuates nuclear ChREBP-mediated de novo lipogenesis in liver (FIG. 12A). […]

PDK4 = PDK4 (Homo sapiens, UniProt Q16654); test: Assay for inhibition of PDK activity, PDK4; assay type: biochemical; design: made in house
Chain of PDK4 (Q16654 whole entry, the tested form may be a part): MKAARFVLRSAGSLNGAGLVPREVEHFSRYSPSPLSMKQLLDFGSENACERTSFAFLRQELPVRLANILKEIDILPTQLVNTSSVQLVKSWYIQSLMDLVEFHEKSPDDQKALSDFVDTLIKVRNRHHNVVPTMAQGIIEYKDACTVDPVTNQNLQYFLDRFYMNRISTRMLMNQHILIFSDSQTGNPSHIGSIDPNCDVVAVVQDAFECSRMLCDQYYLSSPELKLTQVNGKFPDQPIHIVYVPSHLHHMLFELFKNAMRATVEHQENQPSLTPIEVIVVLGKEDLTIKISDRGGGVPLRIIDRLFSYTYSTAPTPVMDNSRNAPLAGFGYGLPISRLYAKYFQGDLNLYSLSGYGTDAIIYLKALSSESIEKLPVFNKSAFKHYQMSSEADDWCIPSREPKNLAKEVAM
Experimental: Recombinant human PDK2 was expressed and purified as a N terminal His6-tagged SUMO fusion protein with a tobacco-etch-virus protease (TEV) cleavage site in front of the N-terminal PDK2 sequence (26), and was used directly for the activity assay and binding affinity analyses. […] The purified protein was concentrated to 35-40 mg/ml and stored at −80° C. in small aliquots. Recombinant human PDK1, PDK3 and PDK4 were expressed and purified as described previously (26).
The remaining steps were described previously (26). IC50 values were obtained by the curve fitting of inhibition isotherms using Prism 6 (GraphPad software, Inc.).

Compound: O=S(=O)(c1ccc(O)cc1O)N1Cc2cc(O)cc(O)c2C1 [PS10, 2-((2,4-dihydroxyphenyl)sulfonyl)isoindoline-4,6-diol]
- half-life [1]: > 4 h
- effect on PDP1 activity in vitro (PDP1): without effect
- plasma cholesterol vs vehicle-treated (DIO mice): significantly lower
- plasma lactate vs vehicle-treated (DIO mice): significantly lower
- plasma triglycerides vs vehicle-treated (DIO mice): significantly lower
- ChREBP protein levels in hepatic nuclear fractions (ChREBP): drastically decreased
- IC50 (PDK4; Table 1, inhibitor 31.6 nM to 1 mM, read-out: IC50, μM for PDK4): 0.76 µM
- pIC50 (PDK4; absence of E2/E3BP core (−), read-out: IC50 for PDK4): 6.11
